Source: paper PMC6620859, “Synthesis and Preclinical Evaluation of the Fibrin-Binding Cyclic Peptide ^18F-iCREKA: Comparison with Its Contrasted Linear Peptide” (Contrast Media & Molecular Imaging, 2019)
Several values for one entry are separate records, joined by “and”; a condition that tells them apart may be missing. Identical values can stand only once.

Key:
[1] = format: physicochemical
Experimental: The water partition coefficient was reflected by the logP value of the fluorine-18-labeled peptides. 500 μL of octanol and 500 μL of pure water were added into an EP tube. 185 KBq (5 μCi) of fluorine-18-labeled peptides were added into the solution and well mixed. After centrifugating for 5 min at a speed of 1000 r/min, 300 μL of supernatant liquid and 300 μL of lower liquid were carefully pipetted into two γ countertubes, respectively. The logarithm of the radioactivity ratio of octanol to water was the logP value. The test was repeated four times for each fluorine-18-labeled peptide.

U87MG xenograft = conditions: mouse, in vivo
Experimental: Animal procedures were performed according to the guideline of the Animal Ethics Committee of the Southern Medical University. Approximately 10 × 10^6 U87MG cells and Caov3 cells were suspended in PBS and subcutaneously implanted in the right armpit of female BALB/c nude mice. Tumors were allowed to grow to a size of 0.5–1.5 cm in diameter.
Small-animal PET/CTs were performed at the PET center of Southern Medical University Nanfang Hospital using a PET/CT scanner (Simens Inveon Micro-PET/CT). Tumor-bearing mice (n = 3/group) were intravenously injected with 5.55 MBq of ^18F-NOTA-LP or ^18F-NOTA-iCREKA under isoflurane anesthesia. A ten-minute static PET scan for each animal was acquired at 30, 60, and 120 min after the injection. 120 min dynamic scans were also obtained for ^18F-NOTA-LP and ^18F-NOTA-iCREKA (n = 2/group). The 3-dimensional ordered subset expectation maximization (3D-OSEM) algorithm was used for the PET reconstruction, and CT was applied for attenuation correction. Inveon Research Workplace (IRW) 3.0 software (Siemens, Germany) was used to measure the regions of interest (ROIs). The radioactivity concentrations were computed automatically, and the results were reflected by the unit of percent injected dose per gram (%ID/g). The maximum %ID/g of the ROIs was used for statistical analyses. Tumor-to-muscle (T/M) uptake ratios were calculated by dividing the radioactivity uptake in the tumor by the contralateral shoulder muscle.

U87MG cells = assay: Cellular uptake test in U87MG cells; format: cell-based, human; conditions: for cellular uptake to U87MG cells after activation by MMP-2: radio medium mixed with activated MMP-2, compared with no activation; for cellular uptake percentage (ID%), peak / maximum, U87MG cells: without MMP-2 activation, serum-free DMEM, 500 μL/well, 2-120 min, PBS rinsed 3 times, γ counting, 4 wells per time point
Experimental: (§1) U87MG cells and Caov3 cells were counted and uniformly inoculated into 24-well plates. The 24-well plates were marked, and cells were incubated for 24 hours in complete DMEM with 10% fetal bovine serum. Radio medium was prepared by adding 888 KBq (24 μCi) fluorine-18-labeled peptide into 15 mL DMEM without any serum. After incubation, the complete DMEM were poured and the radio medium were added in with 500 μL/well. The remainder medium were collected into 4 γ countertubes with 500 μL/tube to be representative of radioactivity gross. When the time arrived at 2, 5, 15, 30, 60, and 120 min, the radio medium were carefully pipetted out and the wells were carefully rinsed by 1 mL of PBS for 3 times. 4 wells were divided into a group corresponding to one time point. After the rinsing, SDS-NaOH solutions were added into the wells to dissociate the cells. The solutions were collected into γ countertubes to measure the radioactivity. The binding affinity was reflected by the radioactivity percentage, which was recorded as ID%, of the wells and the gross. The final results were recorded as the time-radioactivity curve including the six time points.
(§2) Fluorine-18 labeled peptides binding affinities after activation were also measured by this protocol while the radio-medium were mixed with activated MMP-2 (Abcam).

[2] = mouse, in vivo
Experimental: A nude with U87MG xenograft was injected with a dose of approximately 11.1 MBq (0.3 mCi) of ^18F-labeled peptides via the tail vein. The mouse was euthanized at 30 min after injection, the tumor was carefully excised, and the blood was collected. The tumor was cut into pieces and made into homogenates by mixing 200 μL normal saline. The mixture was centrifuged for 10 min at a speed of 12000 r/min. The supernatant liquid was carefully pipetted and transferred into an Amicon® Ultracentrifugal filter device for further centrifugation. The filtrate was injected into an HPLC column to analyze the in vivo stability of fluorine-18-labeled peptide.

fibrin clots = biological target: T1, fibrin clots (Homo sapiens, UniProt P02671+P02675+P02679); assay: Fluorine-18-labeled peptide binding affinity to fibrin clots; conditions: clots from 75 μL fibrinogen 2 mg/mL + 30 μL thrombin 2.5 U/mL; 100 μL tracer in PBS, 37°C, one hour, PBS washed three times, radioactive counter, four tubes, mean ± SD
T1 sequence (P02671 36-629 limits assumed): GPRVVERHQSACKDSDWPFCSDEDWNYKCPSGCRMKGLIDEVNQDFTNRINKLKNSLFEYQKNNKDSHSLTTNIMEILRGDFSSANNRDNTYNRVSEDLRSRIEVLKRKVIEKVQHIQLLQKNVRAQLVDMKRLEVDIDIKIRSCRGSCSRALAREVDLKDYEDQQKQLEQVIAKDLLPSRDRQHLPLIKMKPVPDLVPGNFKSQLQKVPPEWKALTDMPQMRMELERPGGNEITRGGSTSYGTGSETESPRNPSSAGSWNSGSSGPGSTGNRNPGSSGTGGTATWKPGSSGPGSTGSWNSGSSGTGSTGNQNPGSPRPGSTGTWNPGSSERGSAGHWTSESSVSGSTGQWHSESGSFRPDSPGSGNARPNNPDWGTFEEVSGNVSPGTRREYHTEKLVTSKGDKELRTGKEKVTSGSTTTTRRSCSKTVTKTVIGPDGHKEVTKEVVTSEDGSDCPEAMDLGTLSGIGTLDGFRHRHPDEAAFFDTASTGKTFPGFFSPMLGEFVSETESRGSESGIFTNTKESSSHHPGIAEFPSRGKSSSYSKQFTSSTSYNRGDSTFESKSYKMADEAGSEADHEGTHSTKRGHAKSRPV
T1 sequence (P02675 45-491 limits assumed): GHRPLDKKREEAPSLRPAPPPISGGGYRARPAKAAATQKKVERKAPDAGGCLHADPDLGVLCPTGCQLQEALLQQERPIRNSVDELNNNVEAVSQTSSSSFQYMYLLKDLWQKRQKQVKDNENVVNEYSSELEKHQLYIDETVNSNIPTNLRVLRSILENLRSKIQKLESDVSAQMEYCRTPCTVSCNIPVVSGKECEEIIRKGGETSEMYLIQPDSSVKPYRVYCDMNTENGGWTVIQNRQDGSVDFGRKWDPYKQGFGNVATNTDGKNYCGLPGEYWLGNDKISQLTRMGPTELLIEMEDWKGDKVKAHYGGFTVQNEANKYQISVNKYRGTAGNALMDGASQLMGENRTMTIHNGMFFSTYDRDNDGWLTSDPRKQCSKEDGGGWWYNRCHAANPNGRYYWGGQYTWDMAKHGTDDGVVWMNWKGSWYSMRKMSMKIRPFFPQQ
T1 sequence (P02679 27-437 isoform P02679-2 limits assumed): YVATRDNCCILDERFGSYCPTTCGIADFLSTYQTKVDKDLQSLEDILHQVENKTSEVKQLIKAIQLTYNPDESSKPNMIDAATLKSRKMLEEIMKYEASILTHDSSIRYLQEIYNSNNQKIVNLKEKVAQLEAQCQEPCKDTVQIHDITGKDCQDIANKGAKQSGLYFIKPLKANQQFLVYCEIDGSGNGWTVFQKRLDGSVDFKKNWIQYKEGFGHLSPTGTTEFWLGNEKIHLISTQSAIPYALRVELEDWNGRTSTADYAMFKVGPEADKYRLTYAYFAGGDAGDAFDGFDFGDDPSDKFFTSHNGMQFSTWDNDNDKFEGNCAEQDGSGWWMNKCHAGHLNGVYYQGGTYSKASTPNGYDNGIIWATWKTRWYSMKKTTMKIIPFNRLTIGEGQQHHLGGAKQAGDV
Experimental: As previously reported, to synthesize fibrin clots, 75 μL of fibrinogen solution (2 mg/mL) in 0.9% NaCl was added to four 1.5 mL EP tubes. 30 μL of a 2.5 U/mL thrombin solution in 0.9% NaCl was subsequently added to these tubes. The tubes were placed in the thermostatic oscillator at 37°C for four hours, and the gels representative of fibrin clots were formed in the tubes. 370 KBq (10 μCi) fluorine-18-labeled peptide was diluted in 1 ml PBS. 100 μL of the solution was added into each tube, respectively, and added into four empty tubes for reference. All tubes were incubated at 37°C for one hour. After that, the supernatant liquid was carefully pipetted. PBS was added and pipetted three times to remove any CREKA or peptides not bond to the fibrin clots. Finally, all tubes were measured by a CAPRAC®-R radioactive counter (Imaxeon) to obtain the bond-to-gross ratio.

Caov3 cells = assay: Cellular uptake test in Caov3 cells; format: cell-based, human; conditions: radio medium mixed with activated MMP-2; compared with no activation
Experimental: as §1, §2

Substance | logP value [1] | kidney uptake (U87MG xenograft) | liver uptake (U87MG xenograft) | tumor-to-muscle (T/M) ratio on micro-PET (U87MG xenograft) | cellular uptake to U87MG cells after activation by MMP-2 (U87MG cells) | cellular uptake percentage (ID%), peak / maximum, U87MG cells (U87MG cells) | area under the time-radioactivity curve representative of defluorination, blood [2] [%] | area under the time-radioactivity curve representative of defluorination, tumor [2] [%] | fibrin-binding percentage (bond-to-gross ratio) (fibrin clots) | cellular uptake to Caov3 cells after activation by MMP-2 (Caov3 cells) | maximum T/M ratio on dynamic micro-PET (U87MG xenograft)
CREKAPLGLAGRKKRRQRRRCK (NOTA) (Cys&Cys bridge) (disulfide) [^18F-NOTA-iCREKA] | −2.51 ± 0.01 | about 27 %ID/g | about 4 %ID/g | 6.48 ± 0.50 | increased | 23.90% and 16.05% | 27.78 | 23.28 | 67.92 ± 6.71% | obviously increased | –
CREKAPLGLAGRKKRRQRRRCK (NOTA) [^18F-NOTA-LP, Al^18F-labeled NOTA conjunct of the contrasted linear peptide LP] | −2.57 ± 0.02 | – | – | 2.08 ± 0.50 | increased | 16.05% and 23.90% | – | – | 67.09 ± 6.20% | slightly higher | 2.69 ± 0.35
NOTA-CREKA [^18F-NOTA-CREKA, Al^18F-labeled NOTA conjunct of the pentapeptide CREKA] | −2.47 ± 0.05 | – | – | – | still no radioactivity | – | – | – | 69.31% ± 6.82 | nearly no radioactivity | –
